From ChEMBL document CHEMBL1201861, “Genomics of Drug Sensitity in Cancer screening data, Wellcome Trust Sanger Institute”

test system: Calu-6; assay: cells; assay type: functional, cell-based, Homo sapiens; details: Homo sapiens, Calu-6;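 also: growth of human Calu-6 cells, read out by a cell viability assay, IC50 marking inhibition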
Description: SANGER: Inhibition of human Calu-6 cell growth in a cell viability assay.

Q: With `COc1cc2ncn(-c3cc(OCc4ccccc4S(C)(=O)=O)c(C#N)s3)c2cc1OC` [GSK-319347A] as the compound, how does the IC50 read?
A: > 5 µM

test system: D-247MG; assay: cells; assay type: functional, cell-based, Homo sapiens; details: Homo sapiens, D-247MG
Description: SANGER: Inhibition of human D-247MG cell growth in a cell viability assay.

Q: For `COc1cc2ncn(-c3cc(OCc4ccccc4S(C)(=O)=O)c(C#N)s3)c2cc1OC` [GSK-319347A], which IC50 is on record?
A: > 5 µM

test system: D-263MG; assay: cells; assay type: functional, cell-based, Homo sapiens; details: Homo sapiens, D-263MG
Description: SANGER: Inhibition of human D-263MG cell growth in a cell viability assay.

Q: `COc1cc2ncn(-c3cc(OCc4ccccc4S(C)(=O)=O)c(C#N)s3)c2cc1OC` [GSK-319347A] was tested. Which IC50 did it give?
A: > 5 µM

test system: DB; assay: cells; assay type: functional, cell-based, Homo sapiens; details: Homo sapiens, DB
Description: SANGER: Inhibition of human DB cell growth in a cell viability assay.

Q: `COc1cc2ncn(-c3cc(OCc4ccccc4S(C)(=O)=O)c(C#N)s3)c2cc1OC` [GSK-319347A] was tested. Which IC50 did it give?
A: > 5 µM

test system: DMS-79; assay: cells; assay type: functional, cell-based, Homo sapiens; details: Homo sapiens, DMS-79;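 also: growth inhibition measured with a cell viability assay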
Description: SANGER: Inhibition of human DMS-79 cell growth in a cell viability assay.

Q: With `COc1cc2ncn(-c3cc(OCc4ccccc4S(C)(=O)=O)c(C#N)s3)c2cc1OC` [GSK-319347A] as the compound, how does the IC50 read?
A: > 5 µM

test system: DU-4475; assay: cells; assay type: functional, cell-based, Homo sapiens; details: Homo sapiens, DU-4475
Description: SANGER: Inhibition of human DU-4475 cell growth in a cell viability assay.

Q: Which IC50 does the source give for `COc1cc2ncn(-c3cc(OCc4ccccc4S(C)(=O)=O)c(C#N)s3)c2cc1OC` [GSK-319347A] here?
A: > 5 µM

test system: EW-1; assay: cells; assay type: functional, cell-based, Homo sapiens; details: Homo sapiens, EW-1;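 also: growth inhibition of the human EW-1 cell line, read out by a cell viability assay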
Description: SANGER: Inhibition of human EW-1 cell growth in a cell viability assay.

Q: With `COc1cc2ncn(-c3cc(OCc4ccccc4S(C)(=O)=O)c(C#N)s3)c2cc1OC` [GSK-319347A] as the compound, how does the IC50 read?
A: > 5 µM

test system: HCC2218; assay: cells; assay type: functional, cell-based, Homo sapiens; details: Homo sapiens, HCC2218;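 also: cell viability assay read-out, with IC50 given as the concentration that inhibits growth of the cell line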
Description: SANGER: Inhibition of human HCC2218 cell growth in a cell viability assay.

Q: With `COc1cc2ncn(-c3cc(OCc4ccccc4S(C)(=O)=O)c(C#N)s3)c2cc1OC` [GSK-319347A] as the compound, how does the IC50 read?
A: > 5 µM

test system: HEL; assay: cells; assay type: functional, cell-based, Homo sapiens; details: Homo sapiens, HEL;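 also: growth inhibition of HEL cells, read out with a cell viability assay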
Description: SANGER: Inhibition of human HEL cell growth in a cell viability assay.

Q: `COc1cc2ncn(-c3cc(OCc4ccccc4S(C)(=O)=O)c(C#N)s3)c2cc1OC` [GSK-319347A] was tested. Which IC50 did it give?
A: > 5 µM

test system: HT; assay: cells; assay type: functional, cell-based, Homo sapiens; details: Homo sapiens, HT
Description: SANGER: Inhibition of human HT cell growth in a cell viability assay.

Q: With `COc1cc2ncn(-c3cc(OCc4ccccc4S(C)(=O)=O)c(C#N)s3)c2cc1OC` [GSK-319347A] as the compound, how does the IC50 read?
A: > 5 µM

test system: HT-144; assay: cells; assay type: functional, cell-based, Homo sapiens; details: Homo sapiens, HT-144
Description: SANGER: Inhibition of human HT-144 cell growth in a cell viability assay.

Q: Which IC50 does the source give for `COc1cc2ncn(-c3cc(OCc4ccccc4S(C)(=O)=O)c(C#N)s3)c2cc1OC` [GSK-319347A] here?
A: > 5 µM

test system: HuTu80; assay: cells; assay type: functional, cell-based, Homo sapiens, HUTU-80; details: Homo sapiens, HuTu80;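 also: growth inhibition of HuTu80 human cells, determined with a cell viability readout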
Description: SANGER: Inhibition of human HUTU-80 cell growth in a cell viability assay.

Q: With `COc1cc2ncn(-c3cc(OCc4ccccc4S(C)(=O)=O)c(C#N)s3)c2cc1OC` [GSK-319347A] as the compound, how does the IC50 read?
A: > 5 µM

test system: JAR; assay: cells; assay type: functional, cell-based, Homo sapiens; details: Homo sapiens, JAR;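 also: growth inhibition of human JAR cells determined with a cell viability assay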
Description: SANGER: Inhibition of human JAR cell growth in a cell viability assay.

Q: With `COc1cc2ncn(-c3cc(OCc4ccccc4S(C)(=O)=O)c(C#N)s3)c2cc1OC` [GSK-319347A] as the compound, how does the IC50 read?
A: > 5 µM

test system: KM12; assay: cells; assay type: functional, cell-based, Homo sapiens; details: Homo sapiens, KM12;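 also: KM12 cell growth inhibition, read out with a cell viability assay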
Description: SANGER: Inhibition of human KM12 cell growth in a cell viability assay.

Q: Which IC50 does the source give for `COc1cc2ncn(-c3cc(OCc4ccccc4S(C)(=O)=O)c(C#N)s3)c2cc1OC` [GSK-319347A] here?
A: > 5 µM

test system: LB996-RCC; assay: cells; assay type: functional, cell-based, Homo sapiens; details: Homo sapiens, LB996-RCC
Description: SANGER: Inhibition of human LB996-RCC cell growth in a cell viability assay.

Q: Which IC50 does the source give for `COc1cc2ncn(-c3cc(OCc4ccccc4S(C)(=O)=O)c(C#N)s3)c2cc1OC` [GSK-319347A] here?
A: > 5 µM

test system: LC-2-ad; assay: cells; assay type: functional, cell-based, Homo sapiens; details: Homo sapiens, LC-2-ad;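 also: growth inhibition of human LC-2-ad cells, read out with a cell viability assay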
Description: SANGER: Inhibition of human LC-2-ad cell growth in a cell viability assay.

Q: How did the IC50 turn out when `COc1cc2ncn(-c3cc(OCc4ccccc4S(C)(=O)=O)c(C#N)s3)c2cc1OC` [GSK-319347A] was run?
A: > 5 µM

test system: LNCaP-Clone-FGC; assay: cells; assay type: functional, cell-based, Homo sapiens; details: Homo sapiens, LNCaP-Clone-FGC
Description: SANGER: Inhibition of human LNCaP-Clone-FGC cell growth in a cell viability assay.

Q: With `COc1cc2ncn(-c3cc(OCc4ccccc4S(C)(=O)=O)c(C#N)s3)c2cc1OC` [GSK-319347A] as the compound, how does the IC50 read?
A: > 5 µM

test system: MZ1-PC; assay: cells; assay type: functional, cell-based, Homo sapiens; details: Homo sapiens, MZ1-PC;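 also: cell viability assay measuring growth inhibition of human MZ1-PC cells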
Description: SANGER: Inhibition of human MZ1-PC cell growth in a cell viability assay.

Q: With `COc1cc2ncn(-c3cc(OCc4ccccc4S(C)(=O)=O)c(C#N)s3)c2cc1OC` [GSK-319347A] as the compound, how does the IC50 read?
A: > 5 µM

test system: MZ7-mel; assay: cells; assay type: functional, cell-based, Homo sapiens; details: Homo sapiens, MZ7-mel;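 also: growth inhibition of human MZ7-mel cells, measured by a cell viability assay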
Description: SANGER: Inhibition of human MZ7-mel cell growth in a cell viability assay.

Q: For `COc1cc2ncn(-c3cc(OCc4ccccc4S(C)(=O)=O)c(C#N)s3)c2cc1OC` [GSK-319347A], which IC50 is on record?
A: > 5 µM

test system: NB10; assay: cells; assay type: functional, cell-based, Homo sapiens; details: Homo sapiens, NB10;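 also: growth inhibition of NB10 cells, read out by a cell viability assay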
Description: SANGER: Inhibition of human NB10 cell growth in a cell viability assay.

Q: Which IC50 does the source give for `COc1cc2ncn(-c3cc(OCc4ccccc4S(C)(=O)=O)c(C#N)s3)c2cc1OC` [GSK-319347A] here?
A: > 5 µM

test system: NB5; assay: cells; assay type: functional, cell-based, Homo sapiens; details: Homo sapiens, NB5;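 also: growth inhibition of NB5 cells, read out as cell viability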
Description: SANGER: Inhibition of human NB5 cell growth in a cell viability assay.

Q: `COc1cc2ncn(-c3cc(OCc4ccccc4S(C)(=O)=O)c(C#N)s3)c2cc1OC` [GSK-319347A] was tested. Which IC50 did it give?
A: > 5 µM

test system: NCI-H1092; assay: cells; assay type: functional, cell-based, Homo sapiens; details: Homo sapiens, NCI-H1092;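 also: cell growth inhibition measured with a cell viability assay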
Description: SANGER: Inhibition of human NCI-H1092 cell growth in a cell viability assay.

Q: With `COc1cc2ncn(-c3cc(OCc4ccccc4S(C)(=O)=O)c(C#N)s3)c2cc1OC` [GSK-319347A] as the compound, how does the IC50 read?
A: > 5 µM

test system: NCI-H2126; assay: cells; assay type: functional, cell-based, Homo sapiens; details: Homo sapiens, NCI-H2126;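 also: growth inhibition of the cancer cell line, determined with a cell viability readout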
Description: SANGER: Inhibition of human NCI-H2126 cell growth in a cell viability assay.

Q: `COc1cc2ncn(-c3cc(OCc4ccccc4S(C)(=O)=O)c(C#N)s3)c2cc1OC` [GSK-319347A] was tested. Which IC50 did it give?
A: > 5 µM

test system: NCI-H226; assay: cells; assay type: functional, cell-based, Homo sapiens; details: Homo sapiens, NCI-H226;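 also: cell viability read-out used to gauge growth inhibition of the cells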
Description: SANGER: Inhibition of human NCI-H226 cell growth in a cell viability assay.

Q: How did the IC50 turn out when `COc1cc2ncn(-c3cc(OCc4ccccc4S(C)(=O)=O)c(C#N)s3)c2cc1OC` [GSK-319347A] was run?
A: > 5 µM
